One data set deals with Stat3 (Mus musculus, UniProt P42227). The data set can be described thus: Stat3 DNA-binding activity in vitro, electrophoretic mobility shift assay (EMSA) on nuclear extracts. The format is biochemical. The note with it: nuclear extracts containing activated Stat3 pre-incubated with compound 30 min at room temperature, radiolabeled hSIE probe. The protocol:
FIGS. 3A-3D. show the effect of aryl sulfonamido compounds described herein on Stat3 DNA-binding activity in vitro. […] Positions of Stat3:DNA complexes in gel are labeled; control lanes (0) represent nuclear extracts pre-treated with 10% DMSO.
Nuclear extract preparation, gel shift assays, and densitometric analysis. […] Except where indicated, nuclear extracts were pre-incubated with compound for 30 min at room temperature prior to incubation with the radiolabeled probe for 30 min at 30° C. before subjecting to EMSA analysis. Where appropriate, bands corresponding to Stat3:DNA complexes were scanned and quantified for each concentration of compound using ImageJ and plotted as percent of control (DMSO) against concentration of compound, from which the IC50 values were derived.
The inhibitory activities of the representative analogs against in vitro Stat3 DNA-binding activity, as measured by electrophoretic mobility shift assay (EMSA) for representative compounds from the Examples above are shown in FIGS. 3A-3D and summarized in Table 1.
Table 1. Stat3 DNA-binding activity in vitro of aryl sulfonamido compounds described herein, including their corresponding referenced names (e.g., H203), as measured by electrophoretic mobility shift assay (EMSA). The inhibition metrics are presented in units of micromolar (μM).

Data set [1] deals with Stat3 DNA-binding activity in MDA-MB-231 cells. Kind of data set: EMSA of nuclear extracts from treated human breast cancer cells (intracellular Stat3 signaling). The format is cell-based. Particulars: 0.5, 1, 2, 3, 4, 5 and 10 μM, 0-72 h. The procedure:
Nuclear extract preparation, gel shift assays, and densitometric analysis. […] The ^32P-labeled oligonucleotide probes used were hSIE (high affinity sis-inducible element from the c-fos gene, m67 variant, 5′-[…]) (SEQ ID NO: 1) that binds Stat1 and Stat3 and MGFe (mammary gland factor element from the bovine β-casein gene promoter, 5′-[…]) (SEQ ID NO: 2) for Stat1 and Stat5 binding. Except where indicated, nuclear extracts were pre-incubated with compound for 30 min at room temperature prior to incubation with the radiolabeled probe for 30 min at 30° C. before subjecting to EMSA analysis. Where appropriate, bands corresponding to Stat3:DNA complexes were scanned and quantified for each concentration of compound using ImageJ and plotted as percent of control (DMSO) against concentration of compound, from which the IC50 values were derived.
Aryl sulfonamido azetidine compounds were investigated for their inhibitory effects of the active analogs on intracellular Stat3 signaling. […] Nuclear extracts are prepared and subjected to EMSA analysis for Stat3 DNA-binding activity. […] Stat3 DNA-binding activity in MDA-MB-231 cells, is inhibited by the compounds following treatment as measured periodically up to 72 h.

Data set [2] can be described thus: Body weight of treated mice in the xenograft study. The format is in vivo, mouse. Particulars: 10 mg/kg every other day, intraperitoneally, treated vs untreated mice. The procedure: (§1) (5 mice per group). The subjects were administered intraperitoneally.
In data set [3] the test system is subcutaneous MDA-MB-231 tumor xenografts. The data set can be described thus: Growth of subcutaneous MDA-MB-231 tumor xenografts. The format is in vivo, mouse. The note with it: 10 mg/kg every other day, intraperitoneally, vs vehicle control. The procedure: as §1
For another data set, the system named is MDA-MB-231. The data set can be described thus: Cell growth by trypan blue exclusion/phase-contrast microscopy. The format is cell-based. Particulars: Homo sapiens, MDA-MB-231, read-out: IC50, MDA-MB-231 cell growth. The procedure: FIGS. 1A-1N. Show the effects of aryl sulfonamido azetidine compounds on cell viability in vitro relative to control (untreated cells). […] Cells in 6-well plates were treated once with 0.05% DMSO, or at the indicated concentrations (0.5, 1, 2, 3, 4, 5 and 10 μM if not otherwise so indicated) of the test compounds. […] The compound names are correlated with the structures provided in the Examples in Table 1.
Cell proliferation and viability assay. […] Cells in 6-well or 96-well plates were treated with or without compounds for the indicated concentrations and time, and subjected to MTT assay or CyQuant cell proliferation assay (Invitrogen/ThermoFisher Scientific), or harvested and the viable cells were counted by trypan blue exclusion with phase-contrast microscopy.
Constitutive Stat3 activity promotes tumor cell growth and proliferation and survival (Darnell J E (2005) Nat Med. 11:595-6; Bowman T, et al., (2000) Oncogene 19:2474-2488). An aryl sulfonamido azetidine compound, H182, was tested against tumor cells harboring constitutively-active Stat3.

The record followed here is patent US20220289720A1, “ARYL SULFONAMIDES AS SMALL MOLECULE STAT3 INHIBITORS” (UNIVERSITY OF HAWAII, priority 2019, published 2022).

SMILES strings stand for the structures. Where only a bound is given, the exact number is not on record here.

Sequence of Stat3 (P42227 2-770): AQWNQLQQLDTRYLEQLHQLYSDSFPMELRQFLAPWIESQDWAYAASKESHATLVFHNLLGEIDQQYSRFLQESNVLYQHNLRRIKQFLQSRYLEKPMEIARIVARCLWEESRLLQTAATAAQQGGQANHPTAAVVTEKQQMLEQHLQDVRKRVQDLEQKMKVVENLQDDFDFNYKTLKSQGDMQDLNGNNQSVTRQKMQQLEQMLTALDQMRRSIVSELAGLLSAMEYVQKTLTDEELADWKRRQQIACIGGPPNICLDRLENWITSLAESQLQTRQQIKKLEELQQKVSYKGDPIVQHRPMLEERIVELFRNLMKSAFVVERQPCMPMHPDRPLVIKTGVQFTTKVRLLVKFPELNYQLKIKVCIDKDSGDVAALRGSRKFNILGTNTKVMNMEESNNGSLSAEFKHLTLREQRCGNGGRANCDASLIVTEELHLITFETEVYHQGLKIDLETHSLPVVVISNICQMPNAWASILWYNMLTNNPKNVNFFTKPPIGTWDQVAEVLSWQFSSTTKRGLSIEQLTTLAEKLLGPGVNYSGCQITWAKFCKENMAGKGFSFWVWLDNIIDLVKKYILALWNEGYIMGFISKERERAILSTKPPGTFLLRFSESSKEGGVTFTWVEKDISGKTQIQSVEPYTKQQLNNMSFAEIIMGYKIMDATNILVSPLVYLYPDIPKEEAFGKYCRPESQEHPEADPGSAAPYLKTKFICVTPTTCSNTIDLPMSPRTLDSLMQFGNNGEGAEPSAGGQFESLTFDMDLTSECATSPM

Consider `Cn1ccc2cc(N(Cc3ccc(C4CCCCC4)cn3)C(=O)[C@H]3CCN3S(=O)(=O)c3c(F)c(F)c(F)c(F)c3F)ccc2c1=O` [Example 22, (R)—N-((5-cyclohexylpyridin-2-yl)methyl)-N-(2-methyl-1-oxo-1,2-dihydroisoquinolin-6-yl)-1-((perfluorophenyl)sulfonyl)azetidine-2-carboxamide], for which, at Stat3, the IC50 turned out to be 866 ± 85 nM.

Regarding `Cn1cnc2cc(N(Cc3ccc(C4CCCCC4)cn3)C(=O)[C@H]3CCN3S(=O)(=O)c3c(F)c(F)c(F)c(F)c3F)ccc2c1=O` [Example 23, (R)—N-((5-cyclohexylpyridin-2-yl)methyl)-N-(3-methyl-4-oxo-3,4-dihydroquinazolin-7-yl)-1-((perfluorophenyl)sulfonyl)azetidine-2-carboxamide], the IC50 at Stat3 is 1150 ± 40 nM.

Consider `O=C([C@H]1CCN1S(=O)(=O)c1c(F)c(F)c(F)c(F)c1F)N(Cc1ccc(C2CCCCC2)cn1)c1ccc2c(=O)[nH]ccc2c1` [Example 25, (R)—N-((5-cyclohexylpyridin-2-yl)methyl)-N-(1-oxo-1,2-dihydroisoquinolin-6-yl)-1-((perfluorophenyl)sulfonyl)azetidine-2-carboxamide], for which, at Stat3, the IC50 is 788 ± 39 nM.

Regarding `O=C([C@H]1CCN1S(=O)(=O)c1c(F)c(F)c(F)c(F)c1F)N(Cc1ccc(C2CCCCC2)nc1)c1ccc2c(=O)[nH]ncc2c1` [Example H172], the “Stat3 DNA-binding activity in MDA-MB-231 cells” value in data set [1] was “inhibited”.

As to `O=C([C@H]1CCN1S(=O)(=O)c1c(F)c(F)c(F)c(F)c1F)N(Cc1ccc(C2CCCCC2)cn1)c1ccc2c(=O)[nH]cnc2c1` [Example H182], in data set [2], the body weight entry was “maintaining subject body weight”. The tumor growth entry in data set [3] was “reduce the tumor growth rate”. For the same compound, the IC50 with MDA-MB-231 is less than 10000 nM. The “Stat3 DNA-binding activity in MDA-MB-231 cells” value in data set [1] is listed as “inhibited”.
